Data as given in patent US6521595B1, “Nonimmunosuppressive [γ-hydroxy-methylleucine4] cyclosporin A, hair growth stimulator and external composition for skin using the same” (LG Chemical, Ltd., priority 1999, dated 2003).

Tested on: C57BL/6 mice
Assay: In vivo hair growth promoting effects on shaved back of C57BL/6 mice
Design: species or system mouse
Settings: seven week-old female C57BL/6 mice in telogen, 100 ul applied once a day for 30 days, compared to vehicle control
Experimental: Seven week-old, female C57BL/6 mice were housed in groups of 7 to 11 animals. Mice were in the telogen stage of the hair cycle when used, as indicated by the pinkish color of the skin.
The mice's hair of the region of back was shaved by a clipper. After a one day for adaptation 100 ul of [γ-hydroxy-methylleucine^4] cyclosporin A was applied on the shaved portion once a day for a period of 30 days. After determining the degree of hair growth by the naked eye, the results were photographed. […] In contrast, animals treated with the derivatives (the 11 derivatives mentioned in REFERENCE EXAMPLES 6 to 11) were almost at the level of the control group, having virtually no effects (data not shown).
The test expanded to the derivatives modified on No. 4 amino acid, methylleucine. The results of the hair growth-stimulating effects on the derivatives in which the original No. 4 amino acid, methylleucine, is substituted with the similarly structured methylisoleucine, methylvaline, leucine, isoleucine, methylalanine (REFERENCE EXAMPLES 1 to 5) are represented in FIG. 17 to FIG. 23, wherein the hair growth-stimulating effects of […], [methylvaline^4] (FIG. 20), [leucine^4] (FIG. 21), [isoleucine^4] (FIG. 22), [methylalanine^4]

Substance: [Ile^4] cyclosporin A [[isoleucine^4]]
- degree of hair growth (hair growth promoting effect) by the naked eye, photographed: much lesser than cyclosporin A

Substance: [Leu^4] cyclosporin A [[leucine^4]]
- degree of hair growth (hair growth promoting effect) by the naked eye, photographed: much lesser than cyclosporin A

Substance: [MeAla^4] cyclosporin A [[methylalanine^4]]
- degree of hair growth (hair growth promoting effect) by the naked eye, photographed: much lesser than cyclosporin A

Substance: [MeVal^4] cyclosporin A [[methylvaline^4]]
- degree of hair growth (hair growth promoting effect) by the naked eye, photographed: much lesser than cyclosporin A

Substance: [methylisoleucine^4] cyclosporin A [[methylleucine^4]]
- degree of hair growth (hair growth promoting effect) by the naked eye, photographed: much lesser than cyclosporin A
